Structures can show the parent of a compound that is named as a salt. Where two headings read alike, the source gives them in different places.
Key:
[1] = Pharmacokinetics in SD rats (iv); assay type: in vivo, SD rat; conditions: male, plasma; for half-life / clearance: SD, rat, iv, 1 mg/kg; for clearance: read-out: Cl—obs (converted); for Vd / AUC(0-t): SD rat, iv 1 mg/kg; for Vd: apparent volume of distribution, read-out: Vss—obs; for AUC(0-t): area under the curve 0→t
Method: Experimental Example 1: Pharmacokinetics Experiments of the Compound of the Present Invention in Rats Test animals: 3 male SD rats, bodyweight 200-250 g for each animal. Test samples were administrated via intravenous push (iv), dosage of administration was 1 mg/kg, volume of administration was 2 mL/kg. Collecting time points: iv: after administration 0.083 […]. At each time point, about 100 μL of whole blood was sampled via caudal vein, added to K2EDTA anti-coagulative tube, centrifuged in a refrigerated centrifuge under 8000 rpm for 6 min to separate plasma, and the plasma was stored in -80° C. refrigerator. Plasma (20 μL) was taken and placed in a 96-well deep-well plate, and internal standard solution (300 μL) was added, subjected to vortex for 5 min, then centrifuged under 12000 rpm for 5 min, and then supernatant (200 μL) was taken and subjected to vortex for 3 min; to be analyzed by LC-MS/MS. Plasma (30 μL) was taken and placed in 1.5 mL EP tube, and internal standard solution (300 μL) was added, subjected to vortex for 5 min, then centrifuged under 12000 rpm for 5 min, and then supernatant (200 μL) was taken and subjected to vortex for 3 min; to be analyzed by LC-MS/MS. Plasma (30 μL) was taken and placed in a 96-well deep-well plate, and internal standard solution (200 μL) was added, subjected to vortex for 5 min, then centrifuged under 4000 rpm for 20 min, and then supernatant (100 μL) was taken and water (100 μL) was added, and subjected to vortex homogeneously; to be analyzed by LC-MS/MS.

[2] = system: Enterobacter cloacae BAA-2341 (KPC); assay: In vitro antibacterial activity, agar dilution MIC; assay type: cell-based; conditions: BAA2341; Table 2; BAA-2341 Enterobacter cloacae, KPC; read-out: MIC
Source text: (§1) Experimental strains: all experimental standard bacterial strains for enzyme production were purchased from ATCC, and the clinically separated CRE strain was purchased from Southwest Hospital of the Third Military Medical University.
(§2) Experimental Method: Agar dilution method, referring to M100-S23: Performance Standards for Antimicrobial Susceptibility Testing: Twenty-Third Informational Supplement (Clinical And Laboratory Standards Institute, 2013). Minimal inhibitory concentration (MIC, μg/mL) was calculated.

[3] = system: Enterobacter hormaechei BAA-2082 (KPC); assay: In vitro antibacterial activity, agar dilution MIC; assay type: cell-based; conditions: BAA2082; Table 2; BAA-2082 Enterobacter hormaechei, KPC; read-out: MIC
Source text: as §1, §2

[4] = system: Escherichia coli BAA-196 (TEM-10); assay: In vitro antibacterial activity, agar dilution MIC; assay type: cell-based; conditions: TEM-10, read-out: MIC
Source text: as §1, §2

[5] = system: Escherichia coli BAA-2452 (NDM-1); assay: In vitro antibacterial activity, agar dilution MIC; assay type: cell-based; conditions: NDM-1, read-out: MIC
Source text: as §1, §2

[6] = system: Escherichia coli BAA-2523 (OXA-48); assay: In vitro antibacterial activity, agar dilution MIC; assay type: cell-based; conditions: OXA-48, read-out: MIC
Source text: as §1, §2

[7] = system: Klebsiella pneumoniae BAA-1900 (KPC); assay: In vitro antibacterial activity, agar dilution MIC; assay type: cell-based; conditions: KPC, read-out: MIC
Source text: as §1, §2

[8] = system: Citrobacter freundii 7520cfr-167 (NDM, OXA-10, ESBLs); assay: In vitro antibacterial activity on clinically separated CRE strain, agar dilution MIC; assay type: cell-based; conditions: Table 3, 7520cfr-167 Citrobacter freundii
Source text: as §1, §2

[9] = system: Citrobacter freundii 7521cfr-169 (NDM, ESBLs, AmpC); assay: as above; assay type: cell-based; conditions: Table 3, 7521cfr-169 Citrobacter freundii
Source text: as §1, §2

[10] = system: Enterobacter cloacae 7494ecl-295 (NDM, ESBLs, AmpC); assay: as above; assay type: cell-based; conditions: Table 3, 7494ecl-295 Enterobacter cloacae
Source text: as §1, §2

[11] = system: Enterobacter cloacae 7495ecl-296 (IMP, ESBLs, AmpC); assay: as above; assay type: cell-based; conditions: Table 3, 7495ecl-296 Enterobacter cloacae
Source text: as §1, §2

[12] = system: Enterobacter cloacae 7498ecl-299 (ESBLs, AmpC); assay: as above; assay type: cell-based; conditions: Table 3, 7498ecl-299 Enterobacter cloacae
Source text: as §1, §2

[13] = system: Enterobacter cloacae 7511ecl-312 (NDM, ESBLs, AmpC); assay: as above; assay type: cell-based; conditions: Table 3, 7511ecl-312 Enterobacter cloacae
Source text: as §1, §2

[14] = system: Enterobacter cloacae 7513ecl-314 (AmpC); assay: as above; assay type: cell-based
Source text: as §1, §2

[15] = system: Escherichia coil 7440eco-641 (ESBLs); assay: as above; assay type: cell-based; conditions: Table 3, 7440eco-641 Escherichia coil
Source text: as §1, §2

[16] = system: Escherichia coli 7438eco-639 (NDM, ESBLs); assay: as above; assay type: cell-based; conditions: Table 3, 7438eco-639 Escherichia coli
Source text: as §1, §2

[17] = system: Klebsiella pneumoniae 7450kpn-597 (KPC, ESBLs); assay: as above; assay type: cell-based; conditions: Table 3, 7450kpn-597 Klebsiella pneumoniae
Source text: as §1, §2

[18] = system: Klebsiella pneumoniae 7460kpn-607 (NDM, ESBLs); assay: as above; assay type: cell-based; conditions: Table 3, 7460kpn-607 Klebsiella pneumoniae
Source text: as §1, §2

[19] = system: Klebsiella pneumoniae 7463kpn-610 (ESBLs); assay: as above; assay type: cell-based
Source text: as §1, §2

[20] = system: Klebsiella pneumoniae 7477kpn-624 (NDM, ESBLs); assay: as above; assay type: cell-based; conditions: Table 3, 7477kpn-624 Klebsiella pneumoniae
Source text: as §1, §2

[21] = system: Klebsiella pneumoniae 7484kpn-631 (IMP, ESBLs); assay: as above; assay type: cell-based
Source text: as §1, §2

[22] = system: Klebsiella pneumoniae 7526kpn-640 (KPC, ESBLs); assay: as above; assay type: cell-based; conditions: Table 3, 7526kpn-640 Klebsiella pneumoniae
Source text: as §1, §2

[23] = BAA196, Table 2, BAA-196 Escherichia coli
[24] = BAA2452, Table 2, BAA-2452 Escherichia coli
[25] = BAA2523, Table 2, BAA-2523 Escherichia coli
[26] = BAA1900, Table 2, BAA-1900 Klebsiella pneumoniae
[27] = Table 3, 7513ecl-314 Enterobacter cloacae
[28] = Table 3, 7463kpn-610 Klebsiella pneumoniae
[29] = Table 3, 7484kpn-631 Klebsiella pneumoniae

SMILES | half-life [1] [min] | clearance [1] [mL/min/kg] | Vd [1] [L/kg] | AUC(0-t) [1] [ng·h/mL] | MIC [2] [µg/mL] | MIC [3] [µg/mL] | MIC [4, 23] [µg/mL] | MIC [5, 24] [µg/mL] | MIC [6, 25] [µg/mL] | MIC [7, 26] [µg/mL] | MIC [8] [µg/mL] | MIC [9] [µg/mL] | MIC [10] [µg/mL] | MIC [11] [µg/mL] | MIC [12] [µg/mL] | MIC [13] [µg/mL] | MIC [14, 27] [µg/mL] | MIC [15] [µg/mL] | MIC [16] [µg/mL] | MIC [17] [µg/mL] | further results
O=C(NC1CCNCC1)[C@@H]1CC[C@@H]2CN1C(=O)N2OS(=O)(=O)O [MK-7655, reference compound] | 23.4 | 16.7 | 0.409 | 1020 | > 16 | > 16 | > 16 | > 16 | > 16 | > 16 | > 8 | > 8 | > 8 | > 8 | > 8 | > 8 | > 8 | > 8 | > 8 | > 8 | MIC [18]: > 8 µg/mL; MIC [19, 28]: > 8 µg/mL; MIC [20]: > 8 µg/mL; MIC [21, 29]: > 8 µg/mL; MIC [22]: > 8 µg/mL
O=C(NC1CC2(CNC2)C1)[C@@H]1CC[C@@H]2CN1C(=O)N2OS(=O)(=O)O [Compound 2, (2S,5R)-2-((2-azaspiro[3.3]heptan-6-yl)carbamoyl)-7-oxo-1,6-diazabicyclo[3.2.1]octan-6-yl hydrogen sulfate] | 44.4 | 6.67 | 0.261 | 2500 | 2 | 2 | 1 | 1 | 1 | 1 | 2 | 2 | 2 | 2 | 2 | 2 | 2 | 2 | 2 | 2 | MIC [18]: 2 µg/mL; MIC [19, 28]: 2 µg/mL; MIC [20]: 2 µg/mL; MIC [21, 29]: 2 µg/mL; MIC [22]: 4 µg/mL
NC(=O)[C@@H]1CC[C@@H]2CN1C(=O)N2OS(=O)(=O)O [AVI sodium salt, Avibactam, reference compound] | 24.6 | 14.9 | 0.535 | 1140 | > 8 | > 8 | > 8 | > 8 | 8 | > 8 | > 8 | 8 | > 8 | > 8 | > 8 | > 8 | > 8 | 8 | 8 | > 8 | MIC ([4]; BAA196, first Table 4, BAA-196 Escherichia coli): 16 µg/mL; MIC ([5]; BAA2452, first Table 4, BAA-2452 Escherichia coli): 16 µg/mL; MIC ([6]; BAA2523, first Table 4, BAA-2523 Escherichia coli): 16 µg/mL; MIC ([7]; BAA1900, first Table 4, BAA-1900 Klebsiella pneumoniae): 16 µg/mL; MIC ([14]; first Table 4, 7513ecl-314 Enterobacter cloacae): 32 µg/mL; MIC [18]: > 8 µg/mL; MIC [19, 28]: 8 µg/mL; MIC ([19]; first Table 4, 7463kpn-610 Klebsiella pneumoniae): 32 µg/mL; MIC [20]: > 8 µg/mL; MIC [21, 29]: > 8 µg/mL; MIC ([21]; first Table 4, 7484kpn-631 Klebsiella pneumoniae): 16 µg/mL; MIC [22]: > 8 µg/mL

Reference: US10167283B2, “β-lactamase inhibitors and uses thereof” (priority 2015, dated 2019)
